Common to all, as to conditions: CAMHB, incubation time 20 h
Compound in one experiment: CC(C)(O/N=C(\C(=O)N[C@@H]1C(=O)N2C(C(=O)[O-])=C(C[n+]3ccccc3)CS[C@H]12)c1csc(N)n1)C(=O)O [ceftazidime]
Compound in a further experiment: CC(C)(O/N=C(\C(=O)N[C@@H]1C(=O)N2C(C(=O)[O-])=C(C[N+]3(CCNC(=O)c4ccc(O)c(O)c4Cl)CCCC3)CS[C@H]12)c1csc(N)n1)C(=O)O [cefiderocol]
Compound in the next experiment: C[C@@H](O)[C@H]1C(=O)N2C(C(=O)O)=C(S[C@@H]3CN[C@H](C(=O)N(C)C)C3)[C@H](C)[C@H]12 [meropenem]

One may read the MIC as the smallest concentration in the dilution series that meets the test's criterion for growth inhibition. As to B. contaminans 21NG609698, the MIC in the experiment with ceftazidime (avibactam 0 µg/mL) stood at 16 µg/mL; in the experiment with cefiderocol (avibactam 0 µg/mL) it was 2 µg/mL; with cefiderocol (avibactam 8 µg/mL), 2 µg/mL; in the experiment with meropenem (avibactam 0 µg/mL), 32 µg/mL; with meropenem (avibactam 8 µg/mL) it was 8 µg/mL.
As for B. cenocepacia BC7, the minimum inhibitory concentration (MIC) with ceftazidime (avibactam 0 µg/mL) is 16 µg/mL; with ceftazidime (avibactam 8 µg/mL), 16 µg/mL; in the experiment with cefiderocol (avibactam 0 µg/mL), above 4 µg/mL; with cefiderocol (avibactam 8 µg/mL), above 4 µg/mL; with meropenem (avibactam 0 µg/mL), 16 µg/mL; in the experiment with meropenem (avibactam 8 µg/mL), 1 µg/mL.
As to B. cenocepacia F4200989-3, the MIC with ceftazidime (avibactam 0 µg/mL) came to 128 µg/mL; with ceftazidime (avibactam 8 µg/mL), 32 µg/mL; with cefiderocol (avibactam 0 µg/mL), 2 µg/mL; with cefiderocol (avibactam 8 µg/mL) it was 1 µg/mL; in the experiment with meropenem (avibactam 0 µg/mL), 32 µg/mL; in the experiment with meropenem (avibactam 8 µg/mL), 4 µg/mL.
Consider B. contaminans LMG23361, for which the MIC with ceftazidime (avibactam 0 µg/mL) is 2 µg/mL; with ceftazidime (avibactam 8 µg/mL), 2 µg/mL; with cefiderocol (avibactam 0 µg/mL), 0.125 µg/mL; with cefiderocol (avibactam 8 µg/mL), 0.125 µg/mL; with meropenem (avibactam 0 µg/mL) it was 4 µg/mL; in the experiment with meropenem (avibactam 8 µg/mL), 0.5 µg/mL.
In the case of B. cenocepacia F9141525, the MIC with ceftazidime (avibactam 0 µg/mL) came to 128 µg/mL; with ceftazidime (avibactam 8 µg/mL), 16 µg/mL; in the experiment with cefiderocol (avibactam 0 µg/mL) it was 0.5 µg/mL; with cefiderocol (avibactam 8 µg/mL), 0.5 µg/mL; in the experiment with meropenem (avibactam 0 µg/mL), 32 µg/mL; with meropenem (avibactam 8 µg/mL), 4 µg/mL.
Consider B. gladioli VC19233, for which the MIC with ceftazidime (avibactam 8 µg/mL) is 2 µg/mL; with cefiderocol (avibactam 0 µg/mL), 0.25 µg/mL; with cefiderocol (avibactam 8 µg/mL) it was 0.25 µg/mL; in the experiment with meropenem (avibactam 0 µg/mL), 1 µg/mL; in the experiment with meropenem (avibactam 8 µg/mL), 1 µg/mL.
Consider P. aeruginosa 70, for which the MIC with ceftazidime (avibactam 0 µg/mL) was determined as 0.5 µg/mL; with ceftazidime (avibactam 8 µg/mL), 0.5 µg/mL; with cefiderocol (avibactam 0 µg/mL), 0.5 µg/mL; with cefiderocol (avibactam 8 µg/mL), 0.5 µg/mL; in the experiment with meropenem (avibactam 0 µg/mL), 0.125 µg/mL; in the experiment with meropenem (avibactam 8 µg/mL), 0.125 µg/mL.
With B. dolosa CEP021, the MIC with ceftazidime (avibactam 0 µg/mL) stood at 2 µg/mL; with ceftazidime (avibactam 8 µg/mL), 1 µg/mL; in the experiment with cefiderocol (avibactam 0 µg/mL), 0.5 µg/mL; with cefiderocol (avibactam 8 µg/mL), 0.5 µg/mL; with meropenem (avibactam 0 µg/mL) it was 2 µg/mL; in the experiment with meropenem (avibactam 8 µg/mL) it was 1 µg/mL.
Regarding P. aeruginosa 20NB681421, the MIC with ceftazidime (avibactam 0 µg/mL) amounted to 4 µg/mL; in the experiment with ceftazidime (avibactam 8 µg/mL) it was 4 µg/mL; with cefiderocol (avibactam 0 µg/mL), 1 µg/mL; with cefiderocol (avibactam 8 µg/mL), 1 µg/mL; with meropenem (avibactam 0 µg/mL) it was 1 µg/mL; with meropenem (avibactam 8 µg/mL), 0.5 µg/mL.
Take B. gladioli 113611: the MIC with ceftazidime (avibactam 0 µg/mL) was 32 µg/mL; with ceftazidime (avibactam 8 µg/mL), 32 µg/mL; in the experiment with cefiderocol (avibactam 0 µg/mL) it was 4 µg/mL; with cefiderocol (avibactam 8 µg/mL), 4 µg/mL; with meropenem (avibactam 0 µg/mL) it was 2 µg/mL; in the experiment with meropenem (avibactam 8 µg/mL) it was 2 µg/mL.
In the case of B. cenocepacia VC10414, the MIC was determined as 8 µg/mL with ceftazidime (avibactam 0 µg/mL); 0.125 µg/mL in the experiment with cefiderocol (avibactam 0 µg/mL); 0.125 µg/mL in the experiment with cefiderocol (avibactam 8 µg/mL); 32 µg/mL with meropenem (avibactam 0 µg/mL); 2 µg/mL with meropenem (avibactam 8 µg/mL).
With P. aeruginosa PA14, the MIC with ceftazidime (avibactam 0 µg/mL) came to 2 µg/mL; with ceftazidime (avibactam 8 µg/mL) it was 2 µg/mL; with cefiderocol (avibactam 0 µg/mL) it was 1 µg/mL; in the experiment with cefiderocol (avibactam 8 µg/mL) it was 1 µg/mL; with meropenem (avibactam 0 µg/mL), 0.5 µg/mL; with meropenem (avibactam 8 µg/mL), 0.25 µg/mL.
As for B. vietnamiensis VC18984, the MIC in the experiment with ceftazidime (avibactam 0 µg/mL) was 16 µg/mL; with cefiderocol (avibactam 0 µg/mL) it was above 4 µg/mL; with cefiderocol (avibactam 8 µg/mL), above 4 µg/mL; with meropenem (avibactam 0 µg/mL) it was 8 µg/mL; in the experiment with meropenem (avibactam 8 µg/mL), 4 µg/mL.
For the test system P. aeruginosa PAO1, the minimum inhibitory concentration (MIC) came to 1 µg/mL in the experiment with ceftazidime (avibactam 0 µg/mL); 1 µg/mL with ceftazidime (avibactam 8 µg/mL); 1 µg/mL in the experiment with cefiderocol (avibactam 0 µg/mL); 1 µg/mL with cefiderocol (avibactam 8 µg/mL); 0.5 µg/mL with meropenem (avibactam 0 µg/mL); 0.5 µg/mL with meropenem (avibactam 8 µg/mL).
As for A. xylosoxidans ACH09, the MIC was found to be 1 µg/mL with ceftazidime (avibactam 0 µg/mL); 1 µg/mL in the experiment with ceftazidime (avibactam 8 µg/mL); 0.25 µg/mL with cefiderocol (avibactam 0 µg/mL); 0.25 µg/mL in the experiment with cefiderocol (avibactam 8 µg/mL); 0.125 µg/mL with meropenem (avibactam 0 µg/mL); 0.125 µg/mL in the experiment with meropenem (avibactam 8 µg/mL).
As to B. vietnamiensis CEP40, the MIC with ceftazidime (avibactam 8 µg/mL) is 2 µg/mL; with cefiderocol (avibactam 0 µg/mL), 0.125 µg/mL; in the experiment with cefiderocol (avibactam 8 µg/mL), 0.0625 µg/mL; in the experiment with meropenem (avibactam 0 µg/mL) it was 1 µg/mL; in the experiment with meropenem (avibactam 8 µg/mL) it was 1 µg/mL.
For the test system B. gladioli 132208, the minimal inhibitory concentration (MIC) with ceftazidime (avibactam 0 µg/mL) worked out at 2 µg/mL; with ceftazidime (avibactam 8 µg/mL), 2 µg/mL; in the experiment with cefiderocol (avibactam 0 µg/mL), 0.5 µg/mL; in the experiment with cefiderocol (avibactam 8 µg/mL), 0.5 µg/mL; with meropenem (avibactam 0 µg/mL) it was 0.5 µg/mL; in the experiment with meropenem (avibactam 8 µg/mL), 0.5 µg/mL.
B. multivorans 131077: the MIC in the experiment with ceftazidime (avibactam 0 µg/mL) turned out to be 8 µg/mL; with ceftazidime (avibactam 8 µg/mL), 8 µg/mL; with cefiderocol (avibactam 0 µg/mL), 0.125 µg/mL; with cefiderocol (avibactam 8 µg/mL), 0.125 µg/mL; in the experiment with meropenem (avibactam 0 µg/mL), 4 µg/mL; in the experiment with meropenem (avibactam 8 µg/mL) it was 1 µg/mL.
P. aeruginosa 74: the MIC in the experiment with ceftazidime (avibactam 0 µg/mL) was 128 µg/mL; with ceftazidime (avibactam 8 µg/mL), 2 µg/mL; in the experiment with cefiderocol (avibactam 0 µg/mL) it was above 4 µg/mL; with cefiderocol (avibactam 8 µg/mL), above 4 µg/mL; with meropenem (avibactam 0 µg/mL), 16 µg/mL; with meropenem (avibactam 8 µg/mL), 2 µg/mL.
As for P. aeruginosa 21NE72623, the MIC with ceftazidime (avibactam 0 µg/mL) is 16 µg/mL; with ceftazidime (avibactam 8 µg/mL), 2 µg/mL; with cefiderocol (avibactam 0 µg/mL), above 4 µg/mL; in the experiment with cefiderocol (avibactam 8 µg/mL), above 4 µg/mL; with meropenem (avibactam 0 µg/mL), 0.5 µg/mL; with meropenem (avibactam 8 µg/mL), 0.125 µg/mL.

Source of the values: the supplement of paper PMC10412643.
